The nature of the assay: Ability to inhibit calf thymus topoisomerase I when assayed in the cleavable complex formation.

We go through two compounds from BindingDB's records for doi:10.1016/0960-894X(95)00360-6 (1995).

Structures are written as SMILES.

What is called IC50 is the midpoint of a concentration-inhibition curve. High values mean weaker potency in that assay, low ones greater potency in that assay. Compound `CC[C@@]1(O)C(=O)OCc2c1cc1n(c2=O)Cc2cc3cc4ncoc4cc3nc2-1` [7-ethyl-7-hydroxy-(7S)-7,8,11,13-tetrahydro-10H-[1,3]oxazolo[4,5-g]pyrano[3',4':6,7]indolizino[1,2-b]quinoline-8,11-dione] registered an IC50 of 150 nM.

Compound `CC[C@@]1(O)C(=O)OCc2c1cc1n(c2=O)Cc2cc3cc(N)c(O)cc3nc2-1` [(S)-9-Amino-4-ethyl-4,8-dihydroxy-1,12-dihydro-4H-2-oxa-6,12a-diaza-dibenzo[b,h]fluorene-3,13-dione] came in with an IC50 of 170 nM.
